Laboratory results taken from patent publication US11981658B2, “Substituted aminopyridine compounds as EGFR inhibitors” (YUHAN CORPORATION, priority 2021, dated 2024).
Where two headings read alike, the source gives them in different places.

What was measured:
[1] = target: EGFR Del19/T790M/C797S (Homo sapiens, UniProt P00533, C797S/DEL746-750/T790M); test: Biochemical EGFR kinase inhibition assay (Lance Ultra TR-FRET), triple mutant del19/T790M/C797S
In short: (§1)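 Kinase activity is measured by TR-FRET phosphopeptide detection. Compounds span 0.003 μM to 10 μM; the 1 h reaction at room temperature is quenched with EDTA, then labelled antibody (2 nM) is incubated 60 min before reading.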

[2] = target: EGFR wildtype (WT) (Homo sapiens, UniProt P00533); test: Biochemical EGFR kinase inhibition assay (Lance Ultra TR-FRET), wildtype
In short: as §1

[3] = target: EGFR Del19/C797S (Homo sapiens, UniProt P00533, C797S/DEL746-750); test: Biochemical EGFR kinase inhibition assay (Lance Ultra TR-FRET), double mutant del19/C797S
In short: as §1

[4] = target: EGFR L858R/C797S (Homo sapiens, UniProt P00533, C797S/L858R); test: Biochemical EGFR kinase inhibition assay (Lance Ultra TR-FRET), double mutant L858R/C797S
In short: as §1

[5] = target: EGFR L858R/T790M/C797S (Homo sapiens, UniProt P00533, C797S/L858R/T790M); test: Biochemical EGFR kinase inhibition assay (Lance Ultra TR-FRET), triple mutant L858R/T790M/C797S
In short: as §1

[6] = IC50 Del19/T790M/C797S (nM), 100 μM ATP
[7] = Km ATP, read-out: IC50 Del19/T790M/C797S (nM), Km ATP
[8] = Km ATP, read-out: IC50 WT (nM), Km ATP
[9] = IC50 Del19/C797S (nM), 100 μM ATP
[10] = Km ATP, read-out: IC50 Del19/C797S (nM), Km ATP
[11] = IC50 L858R/C797S (nM), 100 μM ATP
[12] = Km ATP, read-out: IC50 L858R/C797S (nM), Km ATP
[13] = IC50 L858R/T790M/C797S (nM), 100 μM ATP
[14] = Km ATP, read-out: IC50 L858R/T790M/C797S (nM), Km ATP
[15] = ATP at Km, read-out: IC50 Del19/T790M/C797S (nM), Km ATP
[16] = ATP at Km, read-out: IC50 WT (nM), Km ATP
[17] = ATP at Km, read-out: IC50 Del19/C797S (nM), Km ATP
[18] = ATP at Km, read-out: IC50 L858R/C797S (nM), Km ATP
[19] = ATP at Km, read-out: IC50 L858R/T790M/C797S (nM), Km ATP
[20] = Km ATP, read-out: IC50 Del19/T790M/C797S (nM) Km ATP
[21] = Km ATP, read-out: IC50 WT (nM) Km ATP
[22] = Km ATP, read-out: IC50 Del19/C797S (nM) Km ATP
[23] = Km ATP, read-out: IC50 L858R/C797S (nM) Km ATP
[24] = Km ATP, read-out: IC50 L858R/T790M/C797S (nM) Km ATP

Sequence of EGFR wildtype (WT) (P00533 25-1210): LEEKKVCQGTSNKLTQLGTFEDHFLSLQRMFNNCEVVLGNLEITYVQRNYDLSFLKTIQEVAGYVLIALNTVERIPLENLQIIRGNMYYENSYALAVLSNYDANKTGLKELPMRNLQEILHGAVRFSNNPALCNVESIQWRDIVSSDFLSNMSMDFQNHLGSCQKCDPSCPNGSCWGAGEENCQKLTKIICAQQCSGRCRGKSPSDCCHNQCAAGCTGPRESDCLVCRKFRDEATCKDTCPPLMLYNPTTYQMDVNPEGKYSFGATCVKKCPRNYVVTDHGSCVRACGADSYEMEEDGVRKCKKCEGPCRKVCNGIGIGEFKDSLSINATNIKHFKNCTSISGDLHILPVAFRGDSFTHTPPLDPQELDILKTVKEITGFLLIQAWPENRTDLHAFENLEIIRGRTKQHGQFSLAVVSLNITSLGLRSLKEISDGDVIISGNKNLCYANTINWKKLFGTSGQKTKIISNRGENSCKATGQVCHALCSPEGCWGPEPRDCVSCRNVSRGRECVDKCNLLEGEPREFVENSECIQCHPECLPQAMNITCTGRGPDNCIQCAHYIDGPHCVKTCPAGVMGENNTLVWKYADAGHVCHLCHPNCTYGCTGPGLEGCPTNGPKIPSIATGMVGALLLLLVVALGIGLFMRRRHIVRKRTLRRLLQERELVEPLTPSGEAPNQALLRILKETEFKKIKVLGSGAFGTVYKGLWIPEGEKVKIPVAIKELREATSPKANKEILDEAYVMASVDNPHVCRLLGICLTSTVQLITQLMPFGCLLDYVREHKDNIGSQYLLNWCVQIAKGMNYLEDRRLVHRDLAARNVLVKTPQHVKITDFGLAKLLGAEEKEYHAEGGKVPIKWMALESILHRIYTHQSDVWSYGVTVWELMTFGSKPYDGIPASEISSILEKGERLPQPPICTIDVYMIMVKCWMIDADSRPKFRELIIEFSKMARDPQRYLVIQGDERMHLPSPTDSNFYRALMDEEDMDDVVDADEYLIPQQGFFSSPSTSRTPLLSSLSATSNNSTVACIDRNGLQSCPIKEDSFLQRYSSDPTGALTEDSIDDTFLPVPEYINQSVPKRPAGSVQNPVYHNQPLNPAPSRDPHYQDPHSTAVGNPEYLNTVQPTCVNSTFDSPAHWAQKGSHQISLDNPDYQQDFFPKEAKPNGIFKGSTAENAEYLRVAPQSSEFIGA
Sequence of EGFR Del19/T790M/C797S (P00533 with tags, fused parts or gaps DEL746-750/T790M/C797S): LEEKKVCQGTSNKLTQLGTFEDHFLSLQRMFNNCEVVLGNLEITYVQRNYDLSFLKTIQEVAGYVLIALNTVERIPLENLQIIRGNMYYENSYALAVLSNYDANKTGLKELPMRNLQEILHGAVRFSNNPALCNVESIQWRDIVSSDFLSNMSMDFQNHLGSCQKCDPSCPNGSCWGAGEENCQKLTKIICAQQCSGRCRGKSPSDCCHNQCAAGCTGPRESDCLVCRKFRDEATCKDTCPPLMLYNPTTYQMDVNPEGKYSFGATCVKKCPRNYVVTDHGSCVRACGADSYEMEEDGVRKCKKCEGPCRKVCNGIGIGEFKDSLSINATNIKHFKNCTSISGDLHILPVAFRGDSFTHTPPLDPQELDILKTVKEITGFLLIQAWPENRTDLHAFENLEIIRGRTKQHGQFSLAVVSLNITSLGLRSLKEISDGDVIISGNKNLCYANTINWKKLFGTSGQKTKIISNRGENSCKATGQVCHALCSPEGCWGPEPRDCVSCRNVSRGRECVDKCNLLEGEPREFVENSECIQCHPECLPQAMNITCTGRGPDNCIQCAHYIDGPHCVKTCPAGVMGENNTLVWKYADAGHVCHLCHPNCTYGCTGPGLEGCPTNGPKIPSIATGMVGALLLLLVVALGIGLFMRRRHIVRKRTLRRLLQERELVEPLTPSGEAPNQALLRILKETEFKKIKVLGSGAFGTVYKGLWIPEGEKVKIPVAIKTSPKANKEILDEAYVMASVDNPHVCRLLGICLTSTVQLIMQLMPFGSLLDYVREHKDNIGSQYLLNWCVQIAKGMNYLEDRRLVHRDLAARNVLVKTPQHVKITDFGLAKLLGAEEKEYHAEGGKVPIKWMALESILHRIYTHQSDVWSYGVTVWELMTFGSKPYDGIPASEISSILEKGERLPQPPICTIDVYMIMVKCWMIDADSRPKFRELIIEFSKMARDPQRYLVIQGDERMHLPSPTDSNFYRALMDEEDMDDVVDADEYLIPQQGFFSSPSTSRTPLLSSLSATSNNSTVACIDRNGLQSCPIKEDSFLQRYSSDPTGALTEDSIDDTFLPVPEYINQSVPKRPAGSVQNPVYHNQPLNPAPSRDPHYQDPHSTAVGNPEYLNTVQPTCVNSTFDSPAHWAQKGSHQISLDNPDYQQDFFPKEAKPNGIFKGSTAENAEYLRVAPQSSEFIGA
Sequence of EGFR L858R/C797S (P00533 25-1210 C797S/L858R): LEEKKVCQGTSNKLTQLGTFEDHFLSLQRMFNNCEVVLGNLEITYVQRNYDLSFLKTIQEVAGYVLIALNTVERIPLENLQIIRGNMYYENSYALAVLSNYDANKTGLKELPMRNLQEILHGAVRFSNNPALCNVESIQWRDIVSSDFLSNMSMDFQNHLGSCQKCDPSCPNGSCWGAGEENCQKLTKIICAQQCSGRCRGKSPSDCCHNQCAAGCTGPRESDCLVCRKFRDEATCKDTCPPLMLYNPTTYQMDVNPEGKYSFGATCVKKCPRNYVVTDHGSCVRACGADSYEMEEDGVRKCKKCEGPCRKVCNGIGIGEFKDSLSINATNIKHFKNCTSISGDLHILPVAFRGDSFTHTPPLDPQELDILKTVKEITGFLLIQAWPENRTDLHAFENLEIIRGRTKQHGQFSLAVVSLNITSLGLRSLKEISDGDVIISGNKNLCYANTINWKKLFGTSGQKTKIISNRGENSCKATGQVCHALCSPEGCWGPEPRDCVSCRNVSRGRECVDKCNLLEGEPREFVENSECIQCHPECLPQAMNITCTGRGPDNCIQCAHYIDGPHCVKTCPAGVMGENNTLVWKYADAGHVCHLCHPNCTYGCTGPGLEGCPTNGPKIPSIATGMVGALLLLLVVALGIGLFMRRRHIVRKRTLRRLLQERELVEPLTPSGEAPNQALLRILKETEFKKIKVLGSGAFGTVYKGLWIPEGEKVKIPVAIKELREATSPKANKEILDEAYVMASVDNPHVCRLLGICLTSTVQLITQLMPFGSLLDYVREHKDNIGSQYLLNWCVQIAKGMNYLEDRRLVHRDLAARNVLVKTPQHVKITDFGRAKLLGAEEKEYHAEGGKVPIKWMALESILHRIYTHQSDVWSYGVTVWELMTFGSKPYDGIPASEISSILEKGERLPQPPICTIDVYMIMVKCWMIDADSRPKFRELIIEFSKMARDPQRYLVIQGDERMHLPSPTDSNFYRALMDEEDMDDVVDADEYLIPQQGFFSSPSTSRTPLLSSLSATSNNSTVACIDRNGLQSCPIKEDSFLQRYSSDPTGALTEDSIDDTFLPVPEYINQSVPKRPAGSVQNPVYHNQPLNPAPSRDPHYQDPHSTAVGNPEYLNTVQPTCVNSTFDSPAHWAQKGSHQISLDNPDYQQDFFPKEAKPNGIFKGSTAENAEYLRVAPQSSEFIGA
Sequence of EGFR Del19/C797S (P00533 with tags, fused parts or gaps DEL746-750/C797S): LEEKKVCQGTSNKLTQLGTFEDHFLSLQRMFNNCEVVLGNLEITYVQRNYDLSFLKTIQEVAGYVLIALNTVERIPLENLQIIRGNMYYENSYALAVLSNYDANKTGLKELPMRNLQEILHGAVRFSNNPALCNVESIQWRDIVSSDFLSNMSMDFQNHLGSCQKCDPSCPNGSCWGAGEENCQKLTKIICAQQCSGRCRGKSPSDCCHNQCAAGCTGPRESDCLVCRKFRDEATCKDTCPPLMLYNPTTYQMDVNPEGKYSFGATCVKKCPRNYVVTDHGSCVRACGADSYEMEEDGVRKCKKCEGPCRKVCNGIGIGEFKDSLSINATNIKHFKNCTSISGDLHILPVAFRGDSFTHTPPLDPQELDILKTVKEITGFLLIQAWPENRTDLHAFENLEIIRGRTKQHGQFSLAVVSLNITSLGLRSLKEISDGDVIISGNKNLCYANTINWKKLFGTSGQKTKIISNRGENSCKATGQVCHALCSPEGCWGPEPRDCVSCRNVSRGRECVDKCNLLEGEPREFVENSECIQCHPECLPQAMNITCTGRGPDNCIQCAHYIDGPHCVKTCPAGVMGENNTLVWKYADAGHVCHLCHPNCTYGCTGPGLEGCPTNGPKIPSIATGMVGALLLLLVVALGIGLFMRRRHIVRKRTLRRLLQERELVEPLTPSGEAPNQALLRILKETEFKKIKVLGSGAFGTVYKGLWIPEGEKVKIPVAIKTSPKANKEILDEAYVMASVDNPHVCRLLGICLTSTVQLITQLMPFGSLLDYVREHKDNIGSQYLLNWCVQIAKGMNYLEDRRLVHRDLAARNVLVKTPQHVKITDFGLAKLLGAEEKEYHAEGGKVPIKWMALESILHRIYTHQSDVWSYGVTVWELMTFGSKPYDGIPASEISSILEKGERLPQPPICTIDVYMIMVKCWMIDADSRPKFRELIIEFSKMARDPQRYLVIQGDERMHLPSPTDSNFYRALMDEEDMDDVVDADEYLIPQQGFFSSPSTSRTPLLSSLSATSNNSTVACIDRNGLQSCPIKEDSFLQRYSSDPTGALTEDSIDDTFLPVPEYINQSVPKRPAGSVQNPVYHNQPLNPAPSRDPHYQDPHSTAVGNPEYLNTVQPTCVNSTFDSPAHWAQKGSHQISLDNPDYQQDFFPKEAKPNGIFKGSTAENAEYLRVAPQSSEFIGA

| SMILES | IC50 [1, 6] [nM] | IC50 [1, 7] [nM] | IC50 ([2]; IC50 WT (nM), 100 μM ATP) [nM] | IC50 [2, 8] [nM] | IC50 [3, 9] [nM] | IC50 [3, 10] [nM] | IC50 [4, 11] [nM] | IC50 [4, 12] [nM] | IC50 [5, 13] [nM] | IC50 [5, 14] [nM] | IC50 [1, 15] [nM] | IC50 [2, 16] [nM] | IC50 [3, 17] [nM] | IC50 [4, 18] [nM] | IC50 [5, 19] [nM] | IC50 [1, 20] [nM] | IC50 [2, 21] [nM] | IC50 [3, 22] [nM] | IC50 [4, 23] [nM] | IC50 [5, 24] [nM] |
| --- | --- | --- | --- | --- | --- | --- | --- | --- | --- | --- | --- | --- | --- | --- | --- | --- | --- | --- | --- | --- |
| CC1(O)CC2(CCN(c3cc(Nc4ccnc(-c5cnn(S(=O)(=O)C6CC6)c5)n4)ncc3C#Cc3cnn(CC(F)(F)F)c3)CC2)C1 [Example 347, 7-(2-((2-(1-(Cyclopropylsulfonyl)-1H-pyrazol-4-yl)pyrimidin-4-yl)amino)-5-((1-(2,2,2-trifluoroethyl)-1H-pyrazol-4-yl)ethynyl)pyridin-4-yl)-2-methyl-7-azaspiro[3.5]nonan-2-ol] | 6 | 5.4 | 7140 | 74.3 | 8.4 | 9.2 | 11.7 | 5.9 | 1.7 | 3.2 | – | – | – | – | – | – | – | – | – | – |
| O=S(=O)(C1CC1)n1cc(-c2nccc(Nc3cc(N[C@H]4CC[C@@H](NCCF)CC4)c(C#Cc4cnn(CC(F)(F)F)c4)cn3)n2)cn1 [Example 345, N^2-(2-(1-(Cyclopropylsulfonyl)-1H-pyrazol-4-yl)pyrimidin-4-yl)-N^4-((1s,4s)-4-((2-fluoroethyl)amino)cyclohexyl)-5-((1-(2,2,2-trifluoroethyl)-1H-pyrazol-4-yl)ethynyl)pyridine-2,4-diamine] | 2.7 | 1.5 | 7830 | 138 | 27.6 | 11 | 45.3 | 9.3 | 2.2 | 1.3 | – | – | – | – | – | – | – | – | – | – |
| O=S(=O)(C1CC1)N1CCC(C#Cc2cnc(Nc3ccnc(-c4cnn(S(=O)(=O)C5CC5)c4)n3)cc2NC[C@H]2CC[C@H](CO)CC2)CC1 [Example 392, ((1r,4r)-4-(((2-((2-(1-(Cyclopropylsulfonyl)-1H-pyrazol-4-yl)pyrimidin-4-yl)amino)-5-((1-(cyclopropylsulfonyl)piperidin-4-yl)ethynyl)pyridin-4-yl)amino)methyl)cyclohexyl)methanol] | 22 | – | > 10000 | – | 212 | – | 4300 | – | 60.1 | – | – | – | – | – | – | – | – | – | – | – |
| O=C(N1CCC(C#Cc2cnc(Nc3ccnc(-c4cnn(S(=O)(=O)C5CC5)c4)n3)cc2NCC2CCC(CO)CC2)C1)C(F)(F)F (stereo not shown) [Example 411, 1-(3-((6-((2-(1-(Cyclopropylsulfonyl)-1H-pyrazol-4-yl)pyrimidin-4-yl)amino)-4-((((1 r,4r)-4-(hydroxymethyl)cyclohexyl)methyl)amino)pyridin-3-yl)ethynyl)pyrrolidin-1-yl)-2,2,2-trifluoroethan-1-one] | 7.3 | – | > 10000 | – | 59.8 | – | 979 | – | 35.9 | – | – | – | – | – | – | – | – | – | – | – |
| C[C@]1(O)CC[C@@H](Nc2cc(Nc3ccnc(-c4cnn(S(=O)(=O)C5CC5)c4)n3)ncc2C#Cc2cnn(CC(F)(F)F)c2)CC1 [Example 344, (1s, 4s)-4-((2-((2-(1-(Cyclopropylsulfonyl)-1H-pyrazol-4-yl)pyrimidin-4-yl)amino)-5-((1-(2,2,2-trifluoroethyl)-1H-pyrazol-4-yl)ethynyl)pyridin-4-yl)amino)-1-methylcyclohexan-1-ol] | 11.5 | 7.9 | > 10000 | 200 | 50.6 | 31.3 | 112 | 24.1 | 5 | 3.1 | – | – | – | – | – | – | – | – | – | – |
| O=C(c1ccc(C#Cc2cnc(Nc3ccnc(-c4cnn(S(=O)(=O)C5CC5)c4)n3)cc2N[C@H]2CC[C@@H](CO)CC2)cc1)N1CCC(O)CC1 [Example 441, (4-((6-((2-(1-(Cyclopropylsulfonyl)-1H-pyrazol-4-yl)pyrimidin-4-yl)amino)-4-(((ls, 4s)-4-(hydroxymethyl)cyclohexyl)amino)pyridin-3-yl)ethynyl)phenyl)(4-hydroxypiperidin-1-yl)methanone] | 2.2 | 2.1 | > 10000 | – | 2.3 | – | 47.1 | – | 0.8 | 0.5 | – | – | – | – | – | – | – | – | – | – |
| CC(C)(O)[C@H]1CC[C@@H](Nc2cc(Nc3ccnc(-c4cnn(S(=O)(=O)C5CC5)c4)n3)ncc2C#Cc2ccc(CN3CCOCC3)cc2)CC1 [Example 162, 2-((1s,4s)-4-((2-((2-(1-(Cyclopropylsulfonyl)-1H-pyrazol-4-yl)pyrimidin-4-yl)amino)-5-((4-(morpholinomethyl)phenyl)ethynyl)pyridin-4-yl)amino)cyclohexyl)propan-2-ol] | 22.9 | – | > 10000 | – | 58.4 | – | 619 | – | 26.3 | – | 27.6 | 540 | 44.8 | 39.9 | 12.2 | – | – | – | – | – |

Now those with a lower IC50 [1, 6], led by results:

| IC50 [1, 6] [nM] | IC50 [1, 7] [nM] | IC50 ([2]; IC50 WT (nM), 100 μM ATP) [nM] | IC50 [2, 8] [nM] | IC50 [3, 9] [nM] | IC50 [3, 10] [nM] | IC50 [4, 11] [nM] | IC50 [4, 12] [nM] | IC50 [5, 13] [nM] | IC50 [5, 14] [nM] | IC50 [1, 15] [nM] | IC50 [2, 16] [nM] | IC50 [3, 17] [nM] | IC50 [4, 18] [nM] | IC50 [5, 19] [nM] | IC50 [1, 20] [nM] | IC50 [2, 21] [nM] | IC50 [3, 22] [nM] | IC50 [4, 23] [nM] | IC50 [5, 24] [nM] | SMILES |
| --- | --- | --- | --- | --- | --- | --- | --- | --- | --- | --- | --- | --- | --- | --- | --- | --- | --- | --- | --- | --- |
| 0.4 | – | 7550 | – | 2.8 | – | 6.6 | – | 1.2 | – | – | – | – | – | – | – | – | – | – | – | Cn1cc(C#Cc2cnc(Nc3ccnc(-c4cnn(S(=O)(=O)C5CC5)c4)n3)cc2N2CCC(F)(CO)CC2)cn1 [Example 73, (1-(2-((2-(1-(Cyclopropylsulfonyl)-1H-pyrazol-4-yl)pyrimidin-4-yl)amino)-5-((1-methyl-1H-pyrazol-4-yl)ethynyl)pyridin-4-yl)-4-fluoropiperidin-4-yl)methanol] |
| 0.6 | – | 108 | – | 0.6 | – | 0.5 | – | 0.3 | – | 0.3 | 0.7 | 0.2 | 0.5 | 0.1 | – | – | – | – | – | CN(C)Cc1ccc(C#Cc2cnc(Nc3ccnc(-c4cnn(S(=O)(=O)C5CC5)c4)n3)cc2N2CCC(C)(CO)CC2)cn1 [Example 278, (1-(2-((2-(1-(Cyclopropylsulfonyl)-1H-pyrazol-4-yl)pyrimidin-4-yl)amino)-5-((6-((dimethylamino)methyl)pyridin-3-yl)ethynyl)pyridin-4-yl)-4-methylpiperidin-4-yl)methanol] |
| 0.3 | – | > 10000 | – | 2 | – | 20.9 | – | 0.5 | – | 0.3 | 16.5 | 1.3 | 3.7 | 0.2 | – | – | – | – | – | O=S(=O)(C1CC1)n1cc(-c2nccc(Nc3cc(N[C@H]4CC[C@@H](CO)CC4)c(C#Cc4cnn(CC(F)F)c4)cn3)n2)cn1 [Example 324, ((1s,4s)-4-((2-((2-(1-(Cyclopropylsulfonyl)-1H-pyrazol-4-yl)pyrimidin-4-yl)amino)-5-((1-(2,2-difluoroethyl)-1H-pyrazol-4-yl)ethynyl)pyridin-4-yl)amino)cyclohexyl)methanol] |
| 1.7 | 1 | > 10000 | 300 | 44.7 | 27.7 | 503 | 5.8 | 6.1 | 1.2 | – | – | – | – | – | – | – | – | – | – | C[C@]1(O)CCCN(c2cc(Nc3ccnc(-c4cnn(S(=O)(=O)C5CC5)c4)n3)ncc2C#Cc2cnn(C(F)(F)F)c2)C1 [Example 448, (S)-1-(2-((2-(1-(Cyclopropylsulfonyl)-1H-pyrazol-4-yl)pyrimidin-4-yl)amino)-5-((1-(trifluoromethyl)-1H-pyrazol-4-yl)ethynyl)pyridin-4-yl)-3-methylpiperidin-3-ol] |
| 0.9 | – | > 10000 | – | 4.4 | – | 12.9 | – | 0.7 | – | – | – | – | – | – | 1.1 | 31.9 | 3 | 2.8 | 0.5 | CC(O)C1CCN(c2cc(Nc3ccnc(-c4cnn(S(=O)(=O)C5CC5)c4)n3)ncc2C#Cc2cnn(C)c2)CC1 (stereo not shown) [Example 10, 1-(1-(2-((2-(1-(Cyclopropylsulfonyl)-1H-pyrazol-4-yl)pyrimidin-4-yl)amino)-5-((1-methyl-1H-pyrazol-4-yl)ethynyl)pyridin-4-yl)piperidin-4-yl)ethan-1-ol] |
| 1.1 | – | > 10000 | – | 2.8 | – | 24.7 | – | 0.5 | – | – | – | – | – | – | 0.3 | 15.1 | 0.6 | 4.7 | 0.1 | CN(C)C[C@H]1CC[C@H](COc2cc(Nc3ccnc(-c4cnn(S(=O)(=O)C5CC5)c4)n3)ncc2C#Cc2cnn(C)c2)CC1 [Example 58, 2-(1-(Cyclopropylsulfonyl)-1H-pyrazol-4-yl)-N-(4-(((1r,4r)-4-((dimethylamino)methyl)cyclohexyl)methoxy)-5-((1-methyl-1H-pyrazol-4-yl)ethynyl)pyridin-2-yl)pyrimidin-4-amine] |
